Among the data in patent publication US12091402B2 (Avilar Therapeutics, Inc., priority 2021, dated 2024) are Kd values, retold here.

The target of test [1] is IgG. The experiment in a line: Affinity to IgG by surface plasmon resonance (SPR). The class given is binding. The method, then:
Immobilization levels ranging from 1000-1300 resonance units (RU) are obtained. The running buffer is 10 mM HEPES, pH 7.4, 400 mM NaCl, 0.005% P20, […].

Test [2] concerns the target T1, ASGPR (Homo sapiens, UniProt P07306).
T1 sequence (P07306 1-291): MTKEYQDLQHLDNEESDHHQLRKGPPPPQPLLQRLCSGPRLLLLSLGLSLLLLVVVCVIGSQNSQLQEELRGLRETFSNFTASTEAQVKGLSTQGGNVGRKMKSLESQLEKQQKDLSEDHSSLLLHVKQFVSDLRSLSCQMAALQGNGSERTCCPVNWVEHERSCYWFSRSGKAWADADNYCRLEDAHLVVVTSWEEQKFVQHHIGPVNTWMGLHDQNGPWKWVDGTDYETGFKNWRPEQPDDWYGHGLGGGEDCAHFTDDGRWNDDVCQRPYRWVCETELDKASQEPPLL
As to the kind of experiment: Affinity to ASGPR by surface plasmon resonance (SPR).

[3] abbreviates: Biacore 8K, 25° C., IgG on CM5 chip, read-out: IgG SPR Binding Kd.

Where two headings read alike, the source gives them in different places. Where a SMILES comes first, the peptide text is derived from it. Bridges are numbered along the chain shown (N, C = ends). [ ]: non-standard residue; d: D form. Pro(4S-NH2) = N[C@@H]1CN[C@H](C(=O)O)C1

As to `CC(C)C[C@@H]1NC(=O)[C@H](Cc2cnc[nH]2)NC(=O)[C@H](Cc2c[nH]c3ccccc23)NC(=O)[C@H](C)NC(=O)[C@@H]2CSSC[C@H](NC(=O)[C@H](Cc3c[nH]c4ccccc34)NC(=O)[C@H](C(C)C)NC(=O)[C@H](CC(C)C)NC(=O)[C@H](CCC(=O)O)NC(=O)CNC1=O)C(=O)N[C@@H]([C@@H](C)O)C(=O)N1CCC[C@@H]1C(=O)N1C[C@@H](N)C[C@H]1C(=O)N[C@@H](CC(=O)O)C(=O)N2` [Intermediate 5], the Kd in test [1] (setting [3]) is under 100 nM.

For the molecule `C#CCCCC(=O)N[C@H]1C[C@H]2C(=O)N[C@@H](CC(=O)O)C(=O)N[C@H]3CSSC[C@H](NC(=O)[C@H](Cc4c[nH]c5ccccc45)NC(=O)[C@H](C(C)C)NC(=O)[C@H](CC(C)C)NC(=O)[C@H](CCC(=O)O)NC(=O)CNC(=O)[C@H](CC(C)C)NC(=O)[C@H](Cc4cnc[nH]4)NC(=O)[C@H](Cc4c[nH]c5ccccc45)NC(=O)[C@H](C)NC3=O)C(=O)N[C@@H]([C@@H](C)O)C(=O)N3CCC[C@@H]3C(=O)N2C1` [Intermediate 8], in test [1] (SPR, read-out: IgG KD), the Kd was under 100 nM.

`C#CCCCC(=O)NCCOCCOCCOCCOCCN[C@@H](CC(=O)O)C(=O)N[C@H]1CSSC[C@@H](C(=O)N[C@H](C(N)=O)[C@@H](C)O)NC(=O)[C@H](Cc2c[nH]c3ccccc23)NC(=O)[C@H](C(C)C)NC(=O)[C@H](CC(C)C)NC(=O)[C@H](CCC(=O)O)NC(=O)CNC(=O)[C@H](CC(C)C)NC(=O)[C@H](Cc2cnc[nH]2)NC(=O)[C@H](Cc2c[nH]c3ccccc23)NC(=O)[C@H](C)NC1=O` [Intermediate 3]: in test [1] (setting [3]), the Kd was under 100 nM.

As to `CC(C)C[C@@H]1NC(=O)[C@H](C)NC(=O)CNC(=O)[C@H](CC(C)C)NC(=O)[C@H](Cc2cnc[nH]2)NC(=O)[C@H](Cc2c[nH]c3ccccc23)NC(=O)[C@H](C)NC(=O)[C@@H]2CSSC[C@H](NC(=O)[C@H](Cc3c[nH]c4ccccc34)NC(=O)[C@H](C(C)C)NC1=O)C(=O)N[C@@H]([C@@H](C)O)C(=O)N1CCC[C@@H]1C(=O)N1C[C@@H](N)C[C@H]1C(=O)N[C@@H](CC(N)=O)C(=O)N2` [Intermediate 28] (cyclo(ALVWCT[dP][Pro(4S-NH2)]NCAWHLG); disulfide 5-10), the Kd is under 100 nM in test [1] (setting [3]) and under 100 nM in test [1] (SPR, read-out: IgG KD).

With `C#CCCCC(=O)NCCOCCOCCOCCC(=O)N[C@H]1C[C@H]2C(=O)N[C@@H](CC(=O)O)C(=O)N[C@H]3CSSC[C@H](NC(=O)[C@H](Cc4c[nH]c5ccccc45)NC(=O)[C@H](C(C)C)NC(=O)[C@H](CC(C)C)NC(=O)[C@H](CCC(=O)O)NC(=O)CNC(=O)[C@H](CC(C)C)NC(=O)[C@H](Cc4cnc[nH]4)NC(=O)[C@H](Cc4c[nH]c5ccccc45)NC(=O)[C@H](C)NC3=O)C(=O)N[C@@H]([C@@H](C)O)C(=O)N3CCC[C@@H]3C(=O)N2C1` [Intermediate 9], the Kd in test [1] (setting [3]) was under 100 nM.

In test [2], `CCOC(=O)c1cnc(C(F)(F)F)nc1N[C@H]1[C@H]2OC[C@](CO)(O2)[C@H](O)[C@@H]1O` [A110, ethyl 4-(((1S,2R,3R,4R,5S)-2,3-dihydroxy-1-(hydroxymethyl)-6,8-dioxabicyclo[3.2.1]octan-4-yl)amino)-2-(trifluoromethyl)pyrimidine-5-carboxylate] showed a Kd of 1000 to 10000 nM.

For the molecule `OC[C@@]12CO[C@@H](O1)[C@H](Nc1ncc3c(C(F)(F)F)n[nH]c3n1)[C@@H](O)[C@H]2O` [A37, (1S,2R,3R,4R,5S)-1-(hydroxymethyl)-4-((3-(trifluoromethyl)-1H-pyrazolo[3,4-d]pyrimidin-6-yl)amino)-6,8-dioxabicyclo[3.2.1]octane-2,3-diol], in test [2], the Kd was over 20000 nM.

Consider `CN(c1nccc(C(F)(F)F)n1)[C@H]1CO[C@H](CO)[C@H](O)[C@@H]1O` [A60, (2R,3R,4R,5S)-2-(hydroxymethyl)-5-(methyl(4-(trifluoromethyl)pyrimidin-2-yl)amino)tetrahydro-2H-pyran-3,4-diol], for which the Kd in test [2] fell in the range of 1000 to 10000 nM.

In test [2], `OC[C@@]12CO[C@@H](O1)[C@H](Nc1cc(Cl)cnc1Cl)[C@@H](O)[C@H]2O` [A44, (1S,2R,3R,4R,5S)-4-[(2,5-dichloro-3-pyridyl)amino]-1-(hydroxymethyl)-6,8-dioxabicyclo[3.2.1]octane-2,3-diol] gave a Kd of under 1000 nM.

Regarding `O=C(O)CC(=O)NC(COCCC(=O)NC[C@H]1OC[C@H](Nc2cncc(C(F)(F)F)n2)[C@@H](O)[C@H]1O)COCCC(=O)NC[C@H]1OC[C@H](Nc2cncc(C(F)(F)F)n2)[C@@H](O)[C@H]1O` [A33, 3-((1,15-bis((2R,3R,4R,5S)-3,4-dihydroxy-5-((6-(trifluoromethyl)pyrazin-2-yl)amino)tetrahydro-2H-pyran-2-yl)-3,13-dioxo-6,10-dioxa-2,14-diazapentadecan-8-yl)amino)-3-oxopropanoic acid], in test [2], the Kd is under 100 nM.

`COCCO[C@@H]1O[C@H](CO)[C@H](O)[C@H](O)[C@H]1NC(=O)C(F)(F)F` [A104, N-((2R,3R,4R,5R,6R)-4,5-dihydroxy-6-(hydroxymethyl)-2-(2-methoxyethoxy)tetrahydro-2H-pyran-3-yl)-2,2,2-trifluoroacetamide] gave a Kd in test [2] of 1000 to 10000 nM.

The molecule `OC[C@@]12CO[C@@H](O1)[C@H](Nc1cccc(C(F)(F)F)n1)[C@@H](O)[C@H]2O` [A87, (1S,2R,3R,4R,5S)-1-(hydroxymethyl)-4-((6-(trifluoromethyl)pyridin-2-yl)amino)-6,8-dioxabicyclo[3.2.1]octane-2,3-diol] displayed a Kd in test [2] of under 1000 nM.

With `COc1cccc(-c2cn(C[C@H]3OC[C@H](Nc4nccc(C(F)(F)F)n4)[C@@H](O)[C@H]3O)nn2)c1` [A65, (2R,3R,4R,5S)-2-((4-(3-methoxyphenyl)-1H-1,2,3-triazol-1-yl)methyl)-5-((4-(trifluoromethyl)pyrimidin-2-yl)amino)tetrahydro-2H-pyran-3,4-diol], the Kd in test [2] was under 1000 nM.

The molecule `C=CCO[C@H]1O[C@H](Cn2cc(CO)nn2)[C@H](O)[C@H](O)[C@H]1Nc1nccc(C(F)(F)F)n1` [A64, (2R,3R,4R,5R,6S)-6-(allyloxy)-2-((4-(hydroxymethyl)-1H-1,2,3-triazol-1-yl)methyl)-5-((4-(trifluoromethyl)pyrimidin-2-yl)amino)tetrahydro-2H-pyran-3,4-diol] came in with a Kd in test [2] of 1000 to 10000 nM.

Turning to `COc1cc(C(F)(F)F)nc(N[C@H]2[C@H]3OC[C@](CO)(O3)[C@H](O)[C@@H]2O)n1` [A46, (1S,2R,3R,4R,5S)-1-(hydroxymethyl)-4-((4-methoxy-6-(trifluoromethyl)pyrimidin-2-yl)amino)-6,8-dioxabicyclo[3.2.1]octane-2,3-diol], in test [2], the Kd was under 1000 nM.

Consider `N#Cc1cc(F)cnc1N[C@H]1[C@H]2OC[C@](CO)(O2)[C@H](O)[C@@H]1O` [A40, 2-[[(1S,2R,3R,4R,5S)-2,3-dihydroxy-1-(hydroxymethyl)-6,8-dioxabicyclo[3.2.1]octan-4-yl]amino]-5-fluoro-pyridine-3-carbonitrile], for which the Kd in test [2] was in the range of 1000 to 10000 nM.

Take `OC[C@H]1OCC(Nc2cc(C(F)(F)F)[nH]n2)[C@@H](O)[C@H]1O` (stereo in doubt) [A93, (2R,3R,4R,5S)-2-(hydroxymethyl)-5-((5-(trifluoromethyl)-1H-pyrazol-3-yl)amino)tetrahydro-2H-pyran-3,4-diol]: the dissociation constant Kd in test [2] was over 100 nM.
